Measured values taken from patent EP1015457B1, “1,3-DIOXOLO/4,5-H//2,3/BENZODIAZEPINE DERIVATIVES AS AMPA/KAINATE RECEPTOR INHIBITORS” (EGIS GYOGYSZERGYAR RT., priority 1997, dated 1999).
Where two headings read alike, the source gives them in different places.

Columns and labels:
[1] = test system: CAl neurones of rat hippocampus; test: PSI (inhibition of population spike) test; assay type: cell-based; conditions: electric stimulation of Shaffer collateral comissural pathway
Description: PSI (inhibition of population spike) test
The field potentials (population spike) evoked by electric stimulation of the Shaffer collateral comissural pathway were measured in the CAl neurones of rat hippocampus. The population spike can be inhibited by AMPA/kainate antagonists. The non-cumulative IC50 values are shown in Table I. /Tarnawa, I., Molnár, P., Gaál, L., Andrási, F.: Inhibition of hippocampal field potentials by GYKI 52466 in vitro and in vivo, Acta Physiol. Hung., 79(2), 163-9 (1992)/.

[2] = test system: isolated retinal preparation of the chicken; test: SD (spreading depression) test, evoked by kainate; assay type: cell-based; conditions: Gallus gallus, chicken retina
Excerpt: SD (spreading depression) test
The method is based on the phenomenon of spreading depression evoked by kainate in isolated retinal preparation of the chicken. The formation of spreading depression is inhibited (delayed) by AMPA/kainate antagonists. /Sheardown M.J.: The triggering of spreading depression in the chicken retina: a pharmacological study, Brain Res., 607(1-2), 189-194 (1993)/.

male NMRI mice [3] = test: Muscle relaxant effect, 60° inclined screen according to Hoppe; assay type: in vivo; conditions: for muscle relaxant effect in the inclined screen: 60 mg/kg dose; for muscle relaxant effect in the inclined screen / ED50 / Muscle relaxant effect duration: mice; for ED50: Mus musculus, determined at the time of maximal effect; for ED50 / Muscle relaxant effect duration: ip.; for Muscle relaxant effect duration: time of last reading when the effect was at least 30 %
Description: The assay was done according to Hoppe in male NMRI mice weighing 20 to 25 g, with 10 animals in each group /Hoppe, J.O., J . Pharmacol. Exp. Ther., 100, 333 (1950)/. Following the ip. treatment of animals, the number of mice showing muscle weakness were recorded at every 10 minutes in the first hour and at half hour intervals afterwards. The animals falling off the 60° inclined screen within 30 seconds were considered positive. ED50 values of the given compounds were determined at each time. The duration of effect was defined as the time of last reading when the effect was at least 30 %.

male NMRI mice [4] = test: Maximal electroshock test (MES); assay type: in vivo; conditions: Mus musculus, 0.5 h, ip., inhibition of maximal electroshock, 30 minutes after treatment
Description: Maximal electroshock test (MES)
Male NMRI mice weighing 20 to 30 g were used for the method of Swinyard et al. /Swinyard, E.A., Brown, W.C. and Goodman, L.S.: Comparative assays of antiepileptic drugs in mice and rats, J. Pharmacol., 106, 319 (1952)/. The animals, 10 in each group, were treated ip. either with various doses of the test substance or with vehicle. After 30 minutes, a 50 Hz, 40 mA electroshock was applied for 0.4 s through corneal electrodes. The number of animals that developed tonic extensor convulsion of the hind-limbs was registered, percent inhibition was calculated, and ED50 values were determined by the method of Litchfield and Wilcoxon /Litchfield, J.T., Wilcoxon, F.A.: A simplified method of evaluating dose-effect experiments, J. Pharmacol. Exp. Ther., 96, 99 (1949)/ and summarized in Table III.

male NMRI mice [5] = test: Global ischemia induced by magnesium chloride (gasping time); assay type: in vivo; conditions: for Effect in % (increase in gasping time): Dose 30 mg/kg ip., magnesium chloride iv. after 30 minutes; for ID50: ip., gasping time, calculated by linear regression
Description: Global ischemia induced by magnesium chloride
The experiments were carried out as described by Berga et al. /Berga, P., Beckett, P.R., Roberts, D.J., Llenas, J., Massingham, R.: Synergistic interactions between piracetam and dihydroergocristine in some animal models of cerebral hypoxia and ischemia, Arzneim.--Forsch., 36, 1314-1320 (1986)/. Groups of 10 male NMRI mice weighing 20 to 25 g were treated ip. with the test substance in […]. After 30 minutes, saturated aqueous magnesium chloride solution was applied iv. (5 ml/kg) resulting in an immediate cardiac arrest. The elapsed time between the iv. injection and the last gasping was measured (gasping time). The means of the treated groups were expressed as percent of control. Statistical analysis was done by ANOVA followed by DUNCAN test. The dose resulting in 50 % descrease in gasping time (ID50) was calculated by linear regression.

male DBA/2j strain mice = test: Audiogenic seizure (AS) test; assay type: in vivo; conditions: Mus musculus, ip., DBA/2j mice, inhibition of sound induced seizure
Description: Audiogenic seizure (AS) test
The experiments were carried out by the slightly modified method of De Sarro et al. /De Sarro, G.B., Croucher, M.J. and Meldrum, B.S.: Anticonvulsant action of DS 103-282, Neuropharm., 23, 525 (1984)/. Groups of 8 male DBA/2j strain mice weighing 7 to 14 g were treated ip. with the test substance in 10 ml/kg volume. 15 minutes later, the animals were placed into a covered glass container (30 cm in diameter) and exposed to a 14 kHz 120 dB tone for 60 s at the most. Seizure response was assessed using the following scale: 0 = normal behaviour, 1 = wild running, 2 = clonus, 3 = tonic flexor seizure, 4 = tonic extensor seizure. The maximum response during the 60 s exposure was recorded for each animal. Lethality was also noted. The ED50 values were determined by the method of Litchfield and Wilcoxon concerning the inhibition of clonic seizures and tonic extensor convulsions.

[6] = clonic seizures, read-out: AS ED50 clonic convulsion
[7] = tonic extensor convulsions, read-out: AS ED50 tonic convulsion

For CC1Cc2cc3c(cc2C(c2ccc(N)cc2)=NN1C(=O)NN)OCO3 (racemic) [Example 4, (±)-5-(4-Aminophenyl)-7-(N-aminocarbamoyl)--7,8-dihydro-8-methyl-9H-1,3-dioxolo/4,5-h//2,3/benzodiazepine], the “Percent inhibition of population spike (10 micron)” value (shortened to “Percent inhibition”) [1] was 95%.
For CNC(=O)N1N=C(c2ccc(N)cc2)c2cc3c(cc2C=C1C)OCO3 [Example 11, 5-(4-Aminophenyl)-8-methyl-7-methylcarbamoyl-7H-1,3-dioxolo/4,5-h//2,3/benzodiazepine], the IC50 [2] was 2.8 µM.
With CC1=Cc2cc3c(cc2C(c2ccc(N)cc2)=NN1C(=O)NCCN1CCOCC1)OCO3 [Example 6, 5-(4-Aminopheayl)-8-methyl-7H-1,3-dioxolo/4,5-h//2,3/benzodiazepine-7-carboxylic acid-(2-morpholino-4-ylethyl)amide] the IC50 [2] was 6.5 µM, the “muscle relaxant effect in the inclined screen” value (male NMRI mice [3]) was “no muscle relaxant effect” and the ED50 (male NMRI mice [4]) was ~10 mg/kg.
CONC(=O)N1N=C(c2ccc(N)cc2)c2cc3c(cc2CC1C)OCO3 (racemic) [Example 3, (±)-5-(4-Aminophenyl)-7,8-dihydro-8-methyl--7-(N-methoxycarbamoyl)-9H-1,3-dioxolo/4,5-h//2,3/benzodiazepine] was tested, and the “Percent inhibition” value [1] was 95%, the IC50 [2] was 1.5 µM and the ED50 (male NMRI mice [3]) was 18.1 mg/kg. For the same molecule, the “Muscle relaxant effect duration” value (male NMRI mice [3]) was 4 h, the ED50 (male NMRI mice [4]) was 3.7 mg/kg and the “Effect in % (increase in gasping time)” value (male NMRI mice [5]) was 52%. It also gave an ID50 (male NMRI mice [5]) of 27 mg/kg.
With CC1Cc2cc3c(cc2C(c2ccc(N)cc2)=NN1C(=O)NC1CC1)OCO3 (racemic) [Example 2, (±)-5-(4-Aminophenyl)-7-(N-cyclopropylcarbamoyl)-7,8-dihydro-8-methyl-9H-1,3--dioxolo/4,5-h//2,3/benzodiazepine] the “Percent inhibition” value [1] was 100%, the IC50 [2] was 1.3 µM and the ED50 (male NMRI mice [3]) was 21.1 mg/kg. For the same molecule, the “Muscle relaxant effect duration” value (male NMRI mice [3]) was “higher than 2 hr”, the ED50 (male NMRI mice [4]) was 4.6 mg/kg and the ED50 (male DBA/2j strain mice; [6]) was 2.5 mg/kg. The ED50 (male DBA/2j strain mice; [7]) was 1.6 mg/kg, the “Effect in % (increase in gasping time)” value (male NMRI mice [5]) was 61% and the ID50 (male NMRI mice [5]) was 13 mg/kg.
For CC1=NN=C(c2ccc(N)cc2)c2cc3c(cc2C1)OCO3 [A, 8-Methyl-5--(4-aminophenyl)-9H-1,3-dioxolo/4,5-h//2,3/benzodiazepine, reference compound], the “Percent inhibition” value [1] was 58%, the IC50 [2] was 9.5 µM and the “muscle relaxant effect in the inclined screen” value (male NMRI mice [3]) was “all the treated animals showed muscle relaxation”. The ED50 (male NMRI mice [3]) was 24.5 mg/kg, the muscle relaxant effect (male NMRI mice [3]; at about 4.5 times higher dose than the anticonvulsive ED50 (6.9 mg/kg)) was “about 50%” and the “Muscle relaxant effect duration” value (male NMRI mice [3]) was 1 h. The ED50 (male NMRI mice [4]) was 6.9 mg/kg, the ED50 (male DBA/2j strain mice; [6]) was 4.3 mg/kg and the ED50 (male DBA/2j strain mice; [7]) was 3.6 mg/kg. The “Effect in % (increase in gasping time)” value (male NMRI mice [5]) was 55% and the ID50 (male NMRI mice [5]) was 30 mg/kg.
